How the values were obtained:
Acetylcholinesterase [1] = target: Acetylcholinesterase (Electrophorus electricus, UniProt O42275)
Description: Inhibition of electric eel AChE using acetylthiocholine iodide as substrate preincubated with enzyme for 10 mins prior to substrate challenge measured after 15 mins by Ellman's method

Cholinesterase = Cholinesterase (Equus caballus, UniProt P81908)
Description: Inhibition of BuChE in equine serum using butyrylthiocholine iodide as substrate preincubated with enzyme for 10 mins prior to substrate challenge measured after 15 mins by Ellman's method

[2] = test system: Radical scavenging activity
Description: Antioxidant activity assessed as DPPH radical scavenging activity after 2 hrs by absorbance analysis

[3] = Antioxidant activity assessed as superoxide anion radical scavenging activity at 100 uM by non-enzymatic phenazine methosulfate NADH-system; format: functional
Acetylcholinesterase [4] = target: Acetylcholinesterase (Homo sapiens, UniProt P22303); assay: Inhibition of AChE in human erythrocytes using acetylthiocholine iodide as substrate preincubated with enzyme for 10 mins prior to substrate challenge measured after 15 mins by Ellman's method; format: cell-based
Sequence of Acetylcholinesterase (Homo sapiens, UniProt P22303) (P22303 whole entry): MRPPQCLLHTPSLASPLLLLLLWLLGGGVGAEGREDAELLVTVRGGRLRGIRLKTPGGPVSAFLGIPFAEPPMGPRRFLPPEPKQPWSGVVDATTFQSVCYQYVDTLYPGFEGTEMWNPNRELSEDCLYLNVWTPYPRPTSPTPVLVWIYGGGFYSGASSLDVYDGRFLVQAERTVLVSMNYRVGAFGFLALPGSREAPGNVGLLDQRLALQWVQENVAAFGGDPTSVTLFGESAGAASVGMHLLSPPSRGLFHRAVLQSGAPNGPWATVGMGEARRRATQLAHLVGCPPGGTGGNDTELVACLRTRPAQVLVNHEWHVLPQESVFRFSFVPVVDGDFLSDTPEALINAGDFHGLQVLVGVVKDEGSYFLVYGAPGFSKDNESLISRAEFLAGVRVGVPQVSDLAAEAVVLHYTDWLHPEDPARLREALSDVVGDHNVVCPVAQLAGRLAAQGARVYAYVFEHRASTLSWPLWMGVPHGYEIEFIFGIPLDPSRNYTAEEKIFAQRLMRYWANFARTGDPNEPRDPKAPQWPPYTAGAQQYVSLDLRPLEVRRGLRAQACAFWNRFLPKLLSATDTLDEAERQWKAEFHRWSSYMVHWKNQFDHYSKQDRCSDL

Sequence of Acetylcholinesterase (Electrophorus electricus, UniProt O42275) (O42275 whole entry): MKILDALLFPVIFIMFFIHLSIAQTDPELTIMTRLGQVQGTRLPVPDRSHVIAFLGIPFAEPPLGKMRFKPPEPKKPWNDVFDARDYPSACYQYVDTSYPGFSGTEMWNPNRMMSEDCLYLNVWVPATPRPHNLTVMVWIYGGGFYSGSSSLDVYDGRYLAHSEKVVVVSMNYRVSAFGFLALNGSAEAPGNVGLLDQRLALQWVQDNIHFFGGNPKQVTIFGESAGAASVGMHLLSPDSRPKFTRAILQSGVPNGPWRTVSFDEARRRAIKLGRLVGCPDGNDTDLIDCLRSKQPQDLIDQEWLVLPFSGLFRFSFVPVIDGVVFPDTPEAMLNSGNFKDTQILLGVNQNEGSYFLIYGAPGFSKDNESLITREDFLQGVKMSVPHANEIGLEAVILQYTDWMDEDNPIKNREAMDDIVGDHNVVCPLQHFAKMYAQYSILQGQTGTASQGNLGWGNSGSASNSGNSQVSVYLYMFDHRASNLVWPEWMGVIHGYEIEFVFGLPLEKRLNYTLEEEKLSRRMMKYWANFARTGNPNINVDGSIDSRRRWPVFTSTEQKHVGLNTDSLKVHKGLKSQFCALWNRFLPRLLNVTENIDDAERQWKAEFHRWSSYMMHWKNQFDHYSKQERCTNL
Sequence of Cholinesterase (P81908 whole entry): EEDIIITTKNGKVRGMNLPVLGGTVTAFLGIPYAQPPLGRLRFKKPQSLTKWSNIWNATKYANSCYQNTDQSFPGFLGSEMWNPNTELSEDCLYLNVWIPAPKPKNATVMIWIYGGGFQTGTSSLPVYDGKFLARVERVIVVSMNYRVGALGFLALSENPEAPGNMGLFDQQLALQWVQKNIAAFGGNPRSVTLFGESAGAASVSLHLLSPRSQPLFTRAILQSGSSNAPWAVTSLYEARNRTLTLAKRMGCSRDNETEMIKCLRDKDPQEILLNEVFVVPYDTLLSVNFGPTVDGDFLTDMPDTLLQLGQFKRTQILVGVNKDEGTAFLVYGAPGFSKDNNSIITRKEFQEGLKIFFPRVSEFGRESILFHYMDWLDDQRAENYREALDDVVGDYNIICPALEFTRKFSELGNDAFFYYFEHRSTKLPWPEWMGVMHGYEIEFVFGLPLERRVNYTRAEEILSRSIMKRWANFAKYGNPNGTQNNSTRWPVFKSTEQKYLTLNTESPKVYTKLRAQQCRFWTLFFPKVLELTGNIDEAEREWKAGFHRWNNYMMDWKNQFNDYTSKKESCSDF

Row | Structure (SMILES) | IC50 (Acetylcholinesterase [1]) [µM] | IC50 (Cholinesterase) [µM] | EC50 [2] [µM] | Activity [3] [%] | IC50 (Acetylcholinesterase [4]) [µM]
1 | Cn1c(=O)c(C(=O)NCC2CCN(Cc3ccccc3)CC2)c(N)c2ccccc21 | 0.38 | 1.14 | – | – | –
2 | COc1cc2c(O)c(C(=O)NCC3CCN(Cc4ccccc4)CC3)c(=O)n(C)c2cc1OC | 2.93 | > 10 | – | – | –
3 | Cn1c(=O)c(C(=O)NCC2CCN(Cc3ccccc3)CC2)c(O)c2ccccc21 | 0.37 | 4.26 | – | – | –
4 | O=C(NCC1CCN(Cc2ccccc2)CC1)c1c(O)c2ccccc2n(Cc2cc(O)c(O)c(O)c2)c1=O | 3.89 | > 10 | 107 | – | –
5 | O=C(NCC1CCN(Cc2ccccc2)CC1)c1c(O)c2cc(O)c(O)cc2n(Cc2ccccc2)c1=O | > 10 | > 10 | 20.8 | – | –
6 | Cc1c(C(=O)NCC2CCN(Cc3ccccc3)CC2)c(=O)[nH]c2ccccc12 | 0.47 | > 10 | – | – | –
7 | O=C(NCC1CCN(Cc2ccccc2)CC1)c1c(O)c2ccccc2n(Cc2ccccc2)c1=O | 0.49 | > 10 | – | – | –
8 | O=C(NC1CCN(Cc2ccccc2)CC1)c1c(-c2ccccc2)c2ccccc2[nH]c1=O | > 10 | > 10 | – | – | –
9 | Cc1c(C(=O)NC2CCN(Cc3ccccc3)CC2)c(=O)[nH]c2ccccc12 | 2.46 | > 10 | – | – | –
10 | O=C(NCC1CCN(Cc2ccccc2)CC1)c1c(O)c2ccccc2[nH]c1=O | 1.41 | 6.02 | – | – | –
11 | O=C(NC1CCN(Cc2ccccc2)CC1)c1c(O)c2ccccc2n(Cc2ccccc2)c1=O | 0.39 | > 10 | – | – | –
12 | COc1cc(Cn2c(=O)c(C(=O)NCC3CCN(Cc4ccccc4)CC3)c(O)c3ccccc32)cc(OC)c1O | 0.56 | 0.33 | 90.5 | 33 | –
13 | O=C(NCC1CCN(Cc2ccccc2)CC1)c1c(O)c2cc(O)c(O)cc2[nH]c1=O | 0.48 | > 10 | 12.2 | – | 0.98
14 | O=c1c(O)c(-c2ccc(O)c(O)c2)oc2cc(O)cc(O)c12 [QUERCETIN] | – | – | 10.3 | – | –
15 | COc1cc2[nH]c(=O)c(C(=O)NCC3CCN(Cc4ccccc4)CC3)c(O)c2cc1OC | 0.11 | > 60 | – | – | 0.23
16 | Cn1c(=O)c(C(=O)NC2CCN(Cc3ccccc3)CC2)c(O)c2ccccc21 | 1.52 | > 10 | – | – | –
17 | O=C(NC1CCN(Cc2ccccc2)CC1)c1c(O)c2ccccc2[nH]c1=O | 2.27 | > 10 | – | – | –
18 | Cn1c(=O)c(C(=O)NCC2CCN(Cc3ccccc3)CC2)c(O)c2cc(O)c(O)cc21 | 2.02 | > 10 | 21.7 | 40 | –
19 | COc1cc(/C=C/C(=O)CC(=O)/C=C/c2ccc(O)c(OC)c2)ccc1O [CURCUMIN] | – | – | 26.6 | – | –
20 | COc1cc2c(O)c(C(=O)NCC3CCN(Cc4ccccc4)CC3)c(=O)n(Cc3ccccc3)c2cc1OC | 0.27 | > 60 | – | – | –

Source: ChEMBL document CHEMBL3232950, “Quinolone-benzylpiperidine derivatives as novel acetylcholinesterase inhibitor and antioxidant hybrids for Alzheimer disease” (Bioorg Med Chem, 2014)
